Source: US11304929B2, “Tosylacetate based compounds and derivatives thereof as PHGDH inhibitors” (priority 2017, dated 2022)
pIC50: −log10 of the molar value. Like-named read-outs stand apart in the source and are kept apart here.

Molecular target: PHGDH (Homo sapiens (Human), UniProt O43175)
Assay: 3-Phosphoglycerate Dehydrogenase (PHGDH) Fluorescence Intensity Assay, run at two NAD/3-PG ratios: PHGDH_HIGH_NAD/3-PG (250 μM NAD/500 μM 3-PG) and PHGDH_500_NAD/3-PG (500 μM NAD/500 μM 3-PG)
Format: biochemical
[1] = 500 μM NAD/500 μM 3-PG, read-out: IC50 (PHGDH_500_NAD/3-PG)
[2] = 250 μM NAD/500 μM 3-PG, read-out: IC50 (PHGDH_HIGH_NAD/3-PG)

Chain of PHGDH (O43175 2-533 limits assumed): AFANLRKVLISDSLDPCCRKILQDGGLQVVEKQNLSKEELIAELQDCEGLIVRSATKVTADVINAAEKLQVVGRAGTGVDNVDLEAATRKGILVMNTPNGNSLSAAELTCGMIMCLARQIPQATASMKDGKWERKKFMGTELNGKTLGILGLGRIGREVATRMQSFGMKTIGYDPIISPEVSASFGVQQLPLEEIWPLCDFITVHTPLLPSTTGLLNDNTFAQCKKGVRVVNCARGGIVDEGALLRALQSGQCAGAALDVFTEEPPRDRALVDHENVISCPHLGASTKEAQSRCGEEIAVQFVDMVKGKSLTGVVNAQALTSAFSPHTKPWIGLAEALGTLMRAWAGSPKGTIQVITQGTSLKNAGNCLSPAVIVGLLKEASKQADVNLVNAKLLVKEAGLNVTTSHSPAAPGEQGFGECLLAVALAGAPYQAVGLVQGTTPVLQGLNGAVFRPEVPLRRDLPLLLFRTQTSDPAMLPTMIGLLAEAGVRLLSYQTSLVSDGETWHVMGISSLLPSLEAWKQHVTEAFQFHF
Text: This assay is used to identify compounds which inhibit the enzymatic activity of PHGDH which catalyzes the reaction of 3-Phosphoglycerate (3-PG) and NAD to 3-Phosphohydroxypyruvate and NADH.
The produced NADH is used in a coupled reaction for Diaphorase mediated reduction of Resazurin to Resorufin which can be measured in a Fluorescence Intensity readout.
The full length version of PHGDH enzyme was expressed in E. coli with an N-terminal HIS-tag and a TEV cleavage site.
The 3-Phosphoglycerate substrate was purchased from Sigma. NAD, Diaphorase and Resazurin were purchased from Sigma Aldrich.
Compounds are dispensed onto assay plates (black, low volume, flat bottom 384 well, Corning) using an Access Labcyte Workstation with the Labcyte Echo 55× from a DMSO solution. For the chosen highest assay concentration of 100 μM, 150 nl of compound solution are transferred from a 10 mM DMSO compound stock solution. A series of 11 concentrations (10 1:5 steps) is transferred for each compound.
The assay has been performed at two different NAD/3-PG ratios (final assay concentrations):
Plates are kept at room temperature. After 240 minutes incubation time the fluorescence signal is measured in a PerkinElmer Envision HTS Multilabel Reader with an excitation wavelength at 530-560 nm and an emission wavelength at 590 nm.
Each plate contains negative controls (diluted DMSO instead of test compound; reaction as described with PHGDH protein) and positive controls (diluted DMSO instead of test compound; reaction as described with buffer instead of PHGDH protein). Negative and positive control values are used for normalization.
IC50 values are calculated and analyzed in the MEGALAB IC50 application using a 4 parametric logistic model.

Compound	pIC50 [1]	pIC50 [2]
Cc1cc2c(cc(C(=O)N[C@H](CO)c3ccc([S@+]([O-])CC(=O)OC4CCOCC4)cc3)n2C)c(Cl)c1Cl [Example 13-005, oxan-4-yl 2-[(R)-4-[(1S)-1-[(4,5-dichloro-1,6-dimethyl-1H-indol-2-yl)formamido]-2-hydroxyethyl]benzenesulfinyl]acetate]	6.72	
COC(=O)C[S+]([O-])c1ccc([C@@H](CO)NC(=O)c2cc3c(Cl)cc(C)cc3n2C)cc1 (stereo partly drawn) [Example 11-005, methyl 2-{4-[(1S)-1-[(4-chloro-1,6-dimethyl-1H-indol-2-yl)formamido]-2-hydroxyethyl]benzenesulfinyl}acetate]		6.66
COC(=O)C(C)(C)S(=O)(=O)c1ccc([C@@H](C)NC(=O)c2cc3c(Cl)c(Cl)c(C)cc3n2C)cc1 [Example 05-022, methyl 2-{4-[(1R)-1-[(4,5-dichloro-1,6-dimethyl-1H-indol-2-yl)formamido]ethyl]benzenesulfonyl}-2-methylpropanoate]		5.25
COC(=O)CS(=O)(=O)c1ccc([C@@H](C)NC(=O)c2cc(-c3ccccc3)nn2C)cc1 [Example 02-002, methyl 2-{4-[(1R)-1-[(1-methyl-3-phenyl-1H-pyrazol-5-yl)formamido]ethyl]benzenesulfonyl}acetate]		5.87
CC(C)OC(=O)CS(=O)(=O)c1ccc([C@@H](C)NC(=O)c2cc(-c3ccc(F)c(F)c3)nn2C)cc1 [Example 02-016, propan-2-yl 2-{4-[(1R)-1-{[3-(3,4-difluorophenyl)-1-methyl-1H-pyrazol-5-yl]formamido}ethyl]benzenesulfonyl}acetate]		< 4.70
Cc1cc(Cl)c2cc(C(=O)N[C@H](CO)c3ccc(S(=O)(=O)CC(=O)OC(C)C)cc3)n(C)c2n1 [Example 01-034, propan-2-yl 2-{4-[(1S)-1-({4-chloro-1,6-dimethyl-1H-pyrrolo[2,3-b]pyridin-2-yl}formamido)-2-hydroxyethyl]benzenesulfonyl}acetate]		5.94
COC(=O)C[S@+]([O-])c1ccc([C@@H](CO)NC(=O)c2cc3c(Cl)cc(C)cc3n2C)cc1 [Example 11-008, methyl 2-[(S)-4-[(1S)-1-[(4-chloro-1,6-dimethyl-1H-indol-2-yl)formamido]-2-hydroxyethyl]benzenesulfinyl]acetate]		6.92
C[C@@H](NC(=O)c1cc(-c2ccccc2)nn1C)c1ccc(S(=O)(=O)CC(=O)OCCN(C)C)cc1 [Example 10-002, 2-(dimethylamino)ethyl 2-{4-[(1R)-1-[(1-methyl-3-phenyl-1H-pyrazol-5-yl)formamido]ethyl]benzenesulfonyl}acetate]		6.30
COC(=O)C[S@@+]([O-])c1ccc([C@@H](CO)NC(=O)c2cc3c(Cl)c(Cl)c(C)cc3n2C)cc1 [Example 11-002, methyl 2-[(R)-4-[(1S)-1-[(4,5-dichloro-1,6-dimethyl-1H-indol-2-yl)formamido]-2-hydroxyethyl]benzenesulfinyl]acetate]	6.54	6.72
Cc1cc(Cl)c2cc(C(=O)N[C@H](C)c3ccc(S(=O)(=O)CC(=O)OC(C)C)cc3)n(C)c2c1 [Example 01-024, propan-2-yl 2-{4-[(1R)-1-[(4-chloro-1,6-dimethyl-1H-indol-2-yl)formamido]ethyl]benzenesulfonyl}acetate]		5.45
Cc1cc2c(cc(C(=O)N[C@H](C)c3ccc(S(=O)(=O)C4CCOC4=O)cc3)n2C)c(Cl)c1Cl (stereo partly drawn) [Example 05-023, 4,5-dichloro-1,6-dimethyl-N-[(1R)-1-{4-[(2-oxooxolan-3-yl)sulfonyl]phenyl}ethyl]-1H-indole-2-carboxamide]	6.92	
C[C@@H](NC(=O)c1cc(-c2cccc3cc[nH]c23)nn1C)c1ccc(S(=O)(=O)CC(=O)O)cc1 [Example 04-003, 2-{4-[(1R)-1-{[3-(1H-indol-7-yl)-1-methyl-1H-pyrazol-5-yl]formamido}ethyl]benzenesulfonyl}acetic acid]	7.06	7.28
CC(=O)OCC(CO)COC(=O)CS(=O)(=O)c1ccc([C@@H](C)NC(=O)c2cc3c(Cl)cc(C)cc3n2C)cc1 (stereo partly drawn) [Example 09-024, 2-[(acetyloxy)methyl]-3-hydroxypropyl 2-{4-[(1R)-1-[(4-chloro-1,6-dimethyl-1H-indol-2-yl)formamido]ethyl]benzenesulfonyl}acetate]		6.61
COC(=O)CS(=O)(=O)c1ccc(CNC(=O)c2cc3c(Cl)cc(C)cc3n2C)cc1 [Example 01-030, methyl 2-(4-{[(4-chloro-1,6-dimethyl-1H-indol-2-yl)formamido]methyl}benzenesulfonyl)acetate]		5.47
COC(=O)C(C)(C)S(=O)(=O)c1ccc([C@@H](C)NC(=O)c2cc3c(Cl)c(Cl)c(C)nc3n2C)cc1 [Example 05-020, methyl 2-{4-[(1R)-1-({4,5-dichloro-1,6-dimethyl-1H-pyrrolo[2,3-b]pyridin-2-yl}formamido)ethyl]benzenesulfonyl}-2-methylpropanoate]		< 4.70
Cc1cc(Cl)c2cc(C(=O)N[C@H](C)c3ccc(S(=O)(=O)CC(=O)O[C@@H]4CCOC4)cc3)n(C)c2c1 [Example 09-019, (3R)-oxolan-3-yl 2-{4-[(1R)-1-[(4-chloro-1,6-dimethyl-1H-indol-2-yl)formamido]ethyl]benzenesulfonyl}acetate]		6.60
COC(=O)C1(S(=O)(=O)c2ccc([C@@H](C)NC(=O)c3cc4c(Cl)cc(C)cc4n3C)cc2)CCCC1 [Example 05-008, methyl 1-{4-[(1R)-1-[(4-chloro-1,6-dimethyl-1H-indol-2-yl)formamido]ethyl]benzenesulfonyl}cyclopentane-1-carboxylate]		4.74
COC(=O)CS(=O)(=O)c1ccc([C@@H](C)NC(=O)c2cc3c4ccccc4c(C)cc3n2C)cc1 [Example 01-010, methyl 2-{4-[(1R)-1-({3,5-dimethyl-3H-benzo[e]indol-2-yl}formamido)ethyl]benzenesulfonyl}acetate]		6.03
Cc1cc2c(cc(C(=O)N[C@H](C)c3ccc(S(=O)(=O)C4CCCOC4=O)cc3)n2C)c(Cl)c1Cl (stereo partly drawn) [Example 05-025, 4,5-dichloro-1,6-dimethyl-N-[(1R)-1-{4-[(2-oxooxan-3-yl)sulfonyl]phenyl}ethyl]-1H-indole-2-carboxamide]	7.70	
Cc1cc2c(cc(C(=O)N[C@H](CO)c3ccc(S(=O)(=O)CC(=O)OCCCO)cc3)n2C)c(Cl)c1Cl [Example 09-040, 3-hydroxypropyl 2-{4-[(1S)-1-[(4,5-dichloro-1,6-dimethyl-1H-indol-2-yl)formamido]-2-hydroxyethyl]benzenesulfonyl}acetate]	6.72	
C[C@@H](NC(=O)c1cc2c(Cl)cc(-c3cnn(C)c3)cc2n1C)c1ccc(S(=O)(=O)CC(=O)O)cc1 [Example 03-004, 2-{4-[(1R)-1-{[4-chloro-1-methyl-6-(1-methyl-1H-pyrazol-4-yl)-1H-indol-2-yl]formamido}ethyl]benzenesulfonyl}acetic acid]	7.54	7.70
Cc1cc2c(cc(C(=O)N[C@H](CO)c3ccc([S@@+]([O-])CC(=O)OC(C)C)cc3)n2C)c(F)c1F [Example 13-004, propan-2-yl 2-[(S)-4-[(1S)-1-[(4,5-difluoro-1,6-dimethyl-1H-indol-2-yl)formamido]-2-hydroxyethyl]benzenesulfinyl]acetate]	6.16	
